Data reported in ChEMBL document CHEMBL4152218, “Novel hydrazide-hydrazone and amide substituted coumarin derivatives: Synthesis, cytotoxicity screening, microarray, radiolabeling and in vivo pharmacokinetic studies” (Eur J Med Chem, 2018).
Active and inactive are the calls of the source. The rule behind the calls is not given here.

Experiments:
CCRF-CEM = experiment: Antiproliferative activity against human CCRF-CEM cells after 48 hrs by resazurin dye-based fluorescence assay; format: functional, cell-based
PANC-1 [1] = experiment: Induction of apoptosis in human PANC1 cells assessed as increase in caspase-3/7 activity after 24 hrs by Caspase-Glo 3/7 luminescence assay; format: functional, cell-based
HepG2 [2] = experiment: Effect on ARK1B15 gene expression in human HepG2 cells at IC50 after 48 hrs by microarray analysis; format: functional, cell-based
HepG2 [3] = experiment: Effect on C1orf186 gene expression in human HepG2 cells at IC50 after 48 hrs by microarray analysis; format: functional, cell-based
HepG2 [4] = experiment: Effect on CASP2 gene expression in human HepG2 cells at IC50 after 48 hrs by microarray analysis; format: functional, cell-based
HepG2 [5] = experiment: Effect on CASP8 gene expression in human HepG2 cells at IC50 after 48 hrs by microarray analysis; format: functional, cell-based
HepG2 [6] = experiment: Effect on CYP3A4 gene expression in human HepG2 cells at IC50 after 48 hrs by microarray analysis; format: ADME, cell-based; conditions: hepg2, 48 h
HepG2 [7] = experiment: Effect on GADD45G gene expression in human HepG2 cells at IC50 after 48 hrs by microarray analysis; format: functional, cell-based
HepG2 [8] = experiment: Effect on GOLPH4 gene expression in human HepG2 cells at IC50 after 48 hrs by microarray analysis; format: functional, cell-based
HepG2 [9] = experiment: Effect on GRP gene expression in human HepG2 cells at IC50 after 48 hrs by microarray analysis; format: functional, cell-based
HepG2 [10] = experiment: Effect on GST A1 gene expression in human HepG2 cells at IC50 after 48 hrs by microarray analysis; format: functional, cell-based
HepG2 [11] = experiment: Effect on GST A2 gene expression in human HepG2 cells at IC50 after 48 hrs by microarray analysis; format: functional, cell-based
HepG2 [12] = experiment: Effect on GST M1 gene expression in human HepG2 cells at IC50 after 48 hrs by microarray analysis; format: functional, cell-based
HepG2 [13] = experiment: Effect on INHBE gene expression in human HepG2 cells at IC50 after 48 hrs by microarray analysis; format: functional, cell-based
HepG2 [14] = experiment: Effect on OKL38 gene expression in human HepG2 cells at IC50 after 48 hrs by microarray analysis; format: functional, cell-based
HepG2 [15] = experiment: Effect on PCDH21 gene expression in human HepG2 cells at IC50 after 48 hrs by microarray analysis; format: functional, cell-based
HepG2 [16] = experiment: Effect on PYCR1 gene expression in human HepG2 cells at IC50 after 48 hrs by microarray analysis; format: functional, cell-based
HepG2 [17] = experiment: Effect on SRXN1 gene expression in human HepG2 cells at IC50 after 48 hrs by microarray analysis; format: functional, cell-based
HepG2 [18] = experiment: Effect on TOP2B gene expression in human HepG2 cells at IC50 after 48 hrs by microarray analysis; format: functional, cell-based
HepG2 [19] = experiment: Effect on WDR26 gene expression in human HepG2 cells at IC50 after 48 hrs by microarray analysis; format: functional, cell-based
HepG2 [20] = experiment: Effect on WNT2B gene expression in human HepG2 cells at IC50 after 48 hrs by microarray analysis; format: functional, cell-based
PANC-1 [21] = experiment: Effect on ABCB1 gene expression in human PANC1 cells at IC50 after 48 hrs by microarray analysis; format: functional, cell-based
PANC-1 [22] = experiment: Effect on ABCB4 gene expression in human PANC1 cells at IC50 after 48 hrs by microarray analysis; format: functional, cell-based
PANC-1 [23] = experiment: Effect on CYP1A1 gene expression in human PANC1 cells at IC50 after 48 hrs by microarray analysis; format: ADME, cell-based; conditions: panc-1, 48 h
PANC-1 [24] = experiment: Effect on CYP3A4 gene expression in human PANC1 cells at IC50 after 48 hrs by microarray analysis; format: ADME, cell-based; conditions: panc-1, 48 h
PANC-1 [25] = experiment: Effect on EIF5 gene expression in human PANC1 cells at IC50 after 48 hrs by microarray analysis; format: functional, cell-based
PANC-1 [26] = experiment: Effect on FEZ1 gene expression in human PANC1 cells at IC50 after 48 hrs by microarray analysis; format: functional, cell-based
PANC-1 [27] = experiment: Effect on GLULP2 gene expression in human PANC1 cells at IC50 after 48 hrs by microarray analysis; format: functional, cell-based
PANC-1 [28] = experiment: Effect on GSTM1 gene expression in human PANC1 cells at IC50 after 48 hrs by microarray analysis; format: functional, cell-based
PANC-1 [29] = experiment: Effect on HEATR3 gene expression in human PANC1 cells at IC50 after 48 hrs by microarray analysis; format: functional, cell-based
PANC-1 [30] = experiment: Effect on ITGA2 gene expression in human PANC1 cells at IC50 after 48 hrs by microarray analysis; format: functional, cell-based
PANC-1 [31] = experiment: Effect on MATK gene expression in human PANC1 cells at IC50 after 48 hrs by microarray analysis; format: functional, cell-based
PANC-1 [32] = experiment: Effect on NUCKS1 gene expression in human PANC1 cells at IC50 after 48 hrs by microarray analysis; format: functional, cell-based
PANC-1 [33] = experiment: Effect on PCNA gene expression in human PANC1 cells at IC50 after 48 hrs by microarray analysis; format: functional, cell-based
PANC-1 [34] = experiment: Effect on TDG gene expression in human PANC1 cells at IC50 after 48 hrs by microarray analysis; format: functional, cell-based
PANC-1 [35] = experiment: Effect on THOC2 gene expression in human PANC1 cells at IC50 after 48 hrs by microarray analysis; format: functional, cell-based
PANC-1 [36] = experiment: Effect on TOP2A gene expression in human PANC1 cells at IC50 after 48 hrs by microarray analysis; format: functional, cell-based
PANC-1 [37] = experiment: Effect on TOP3A gene expression in human PANC1 cells at IC50 after 48 hrs by microarray analysis; format: functional, cell-based
PANC-1 [38] = experiment: Effect on YY1 gene expression in human PANC1 cells at IC50 after 48 hrs by microarray analysis; format: functional, cell-based
HepG2 [39] = experiment: Effect on GDF15 gene expression in human HepG2 cells at IC50 after 48 hrs by microarray analysis relative to control; format: functional
HepG2 [40] = experiment: Effect on TOP2A gene expression in human HepG2 cells at IC50 after 48 hrs by microarray analysis relative to control; format: functional
HepG2 [41] = experiment: Effect on GADD45A gene expression in human HepG2 cells at IC50 by SYBR green-dye based qRT-PCR analysis relative to beta-actin; format: functional
HepG2 [42] = experiment: Effect on CASP7 gene expression in human HepG2 cells at IC50 by SYBR green-dye based qRT-PCR analysis relative to beta-actin; format: functional
Cytochrome P450 3A4 = Cytochrome P450 3A4 (Homo sapiens, UniProt P08684); experiment: Inhibition of human recombinant CYP3A4 using luciferin as substrate preincubated for 10 mins followed by substrate addition and measured after 50 mins in presence of NADPH by CYP450-Glo assay; format: ADME; conditions: recombinant enzyme
Sequence of Cytochrome P450 3A4 (P08684 whole entry): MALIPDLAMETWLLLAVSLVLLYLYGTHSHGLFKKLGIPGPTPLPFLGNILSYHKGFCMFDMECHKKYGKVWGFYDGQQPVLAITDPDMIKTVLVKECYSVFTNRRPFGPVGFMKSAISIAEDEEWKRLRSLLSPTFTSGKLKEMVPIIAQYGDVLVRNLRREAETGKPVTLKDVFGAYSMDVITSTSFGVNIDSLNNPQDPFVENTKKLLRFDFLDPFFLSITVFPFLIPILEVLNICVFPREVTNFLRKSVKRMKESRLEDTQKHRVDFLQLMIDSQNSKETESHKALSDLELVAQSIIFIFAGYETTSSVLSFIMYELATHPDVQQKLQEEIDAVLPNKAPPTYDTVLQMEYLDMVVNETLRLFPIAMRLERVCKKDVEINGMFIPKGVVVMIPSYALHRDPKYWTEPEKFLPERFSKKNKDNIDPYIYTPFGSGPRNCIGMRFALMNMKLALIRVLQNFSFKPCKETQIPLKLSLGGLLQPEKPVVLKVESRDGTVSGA

hTERT-BJ [43] = experiment: Cytotoxicity against hTERT-BJ cells at 6.25 uM after 48 hrs by resazurin dye-based fluorescence assay relative to control; format: cell-based; conditions: human
hTERT-BJ [44] = experiment: Cytotoxicity against hTERT-BJ cells at 25 uM after 48 hrs by resazurin dye-based fluorescence assay relative to control; format: cell-based; conditions: human
hTERT-BJ [45] = experiment: Cytotoxicity against hTERT-BJ cells at 50 uM after 48 hrs by resazurin dye-based fluorescence assay relative to control; format: cell-based; conditions: human
TERT-RPE1 = experiment: Cytotoxicity against hTERT-RPE1 cells at 25 uM after 48 hrs by resazurin dye-based fluorescence assay relative to control; format: cell-based; conditions: human, tert-rpe1, 48 h

IC50 (CCRF-CEM): 7.45 µM
Activity (HepG2 [6]): Active
Activity (PANC-1 [23]): Active
Activity (PANC-1 [24]): Active
inhibition (INH) (Cytochrome P450 3A4): Dose-dependent effect
SMILES: O=C(N/N=C/c1cc2ccccc2nc1Cl)c1cc2cc(Br)ccc2oc1=O
Activity (PANC-1 [1]): Dose-dependent effect
Activity (HepG2 [2]): Active
Activity (HepG2 [3]): Active
Activity (HepG2 [4]): Active
Activity (HepG2 [5]): Active
Activity (HepG2 [7]): Active
Activity (HepG2 [8]): Active
Activity (HepG2 [9]): Active
Activity (HepG2 [10]): Active
Activity (HepG2 [11]): Active
Activity (HepG2 [12]): Active
Activity (HepG2 [13]): Active
Activity (HepG2 [14]): Active
Activity (HepG2 [15]): Active
Activity (HepG2 [16]): Active
Activity (HepG2 [17]): Active
Activity (HepG2 [18]): Active
Activity (HepG2 [19]): Active
Activity (HepG2 [20]): Active
Activity (PANC-1 [21]): Active
Activity (PANC-1 [22]): Active
Activity (PANC-1 [25]): Active
Activity (PANC-1 [26]): Active
Activity (PANC-1 [27]): Active
Activity (PANC-1 [28]): Active
Activity (PANC-1 [29]): Active
Activity (PANC-1 [30]): Active
Activity (PANC-1 [31]): Active
Activity (PANC-1 [32]): Active
Activity (PANC-1 [33]): Active
Activity (PANC-1 [34]): Active
Activity (PANC-1 [35]): Active
Activity (PANC-1 [36]): Active
Activity (PANC-1 [37]): Active
Activity (PANC-1 [38]): Active
fold change (FC) (HepG2 [39]): 4.56
fold change (FC) (HepG2 [40]): -3.57
fold change (FC) (HepG2 [41]): 3.52
fold change (FC) (HepG2 [42]): 2.45
Activity (hTERT-BJ [43]): 1.98%
Activity (hTERT-BJ [44]): 3.47%
Activity (hTERT-BJ [45]): 5.18%
Activity (TERT-RPE1): 19.41%
